Reference: US20070112035A1, “Substituted oxyarenes” (BAYER CROPSCIENCE AKTIENGESELLSCHAFT, priority 2003, published 2007)
Like-named read-outs stand apart in the source and are kept apart here.

Tests used:
[1] = log P (physical data); format: physicochemical
[2] = system: Heliothis armigera larvae; assay: Heliothis armigera test (soy sprouts, immersion); format: in vivo; conditions: Helicoverpa armigera, 168 h, 100 ppm active substance, after 7 days
Experimental: (§1) Solvent: 7 Parts by weight of dimethylformamide
(§2) Emulsifier: 2 Parts by weight of alkyl-aryl polyglycol ether
(§3) For the production of a practical active agent preparation, one mixes 1 part by weight of active substance with the specified amount of solvent and emulsifier and dilutes the concentrate to the desired concentration with water containing an emulsifier.
Soy sprouts (Glycine max) are treated through immersion in the active substance preparation of the desired concentration and filled with Heliothis armigera larvae, while the leaves are still moist.
(§4) After the desired time the mortality in % is determined. In doing so, 100% means that all larvae were killed; 0% means that no larvae were killed.

[3] = system: Meloidogyne incognita egg/larvae suspension; assay: Meloidogyne test (gall formation on lettuce); format: in vivo; conditions: 20 ppm active substance; nematicidal effect by gall formation, 100% = no galls
From the text: Meloidogyne Test Solvent: 7 Parts by weight of dimethylformamide Emulsifier: 2 Parts by weight of alkyl-aryl polyglycol ether For the production of a practical active agent preparation, one mixes 1 part by weight of active substance with the specified amount of solvent and emulsifier and dilutes the concentrate to the desired concentration with water. Vessels are filled with sand, active substance solution, Meloidogyne incognita egg/larvae suspension and lettuce seeds. The lettuce seeds germinate and the seedlings grow. The galls grow on the roots. After the desired time, the nematicidal effect is determined by means of gall formation in %. In doing so, 100% means that no galls were found; 0% means that the number of galls on the treated plants corresponds to the untreated control.

[4] = system: cabbage moth larvae (Plutella xylostella); assay: Plutella test (cabbage leaves, immersion); format: in vivo
Experimental: as §1, §2, §3
Cabbage leaves (Brassica oleracea) are treated through immersion in the active substance preparation of the desired concentration and filled with cabbage moth larvae (Plutella xylostella), while the leaves are still moist.
as §4

[5] = system: fall armyworm larvae (Spodoptera exigua); assay: Spodoptera exigua test (cabbage leaves, immersion); format: in vivo
Experimental: as §1, §2, §3
Cabbage leaves (Brassica oleracea) are treated through immersion in the active substance preparation of the desired concentration and filled with fall armyworm larvae (Spodoptera exigua), while the leaves are still moist.
as §4

[6] = system: fall armyworm larvae (Spodoptera frugiperda); assay: Spodoptera frugiperda test (spray treatment); format: in vivo; conditions: 100 ppm active substance, maize leaf slices
From the text: Spodoptera frugiperda Test (Spray Treatment) Solvent: 78 Parts by weight of acetone • • 1.5 Parts by weight of dimethylformamide Emulsifier: 0.5 Parts by weight of alkyl-aryl polyglycol ether For the production of a practical active agent preparation, one mixes 1 part by weight of active substance with the specified amount of solvent and emulsifier and dilutes the concentrate to the desired concentration with water containing an emulsifier. Maize leaf slices (Zea mays) are sprayed with an active substance preparation of the desired concentration and filled with fall armyworm larvae (Spodoptera frugiperda) after drying. After the desired time the effect in % is determined. In doing so, 100% means that all larvae were killed; 0% means that no larvae were killed.

[7] = system: common spider mite (Tetranychus urticae); assay: Tetranychus test (OP-resistant/spray treatment); format: in vivo; conditions: 100 ppm active substance, spray treatment, bean leaf slices, OP-resistant
From the text: Tetranychus Test (OP-Resistant/Spray Treatment)
Solvent: 78 Parts by weight of acetone • • 1.5 Parts by weight of dimethylformamide
Emulsifier: 0.5 Parts by weight of alkyl-aryl polyglycol ether
as §3
Bean leaf slices (Phaseolus vulgaris) that are affected by all stages of the common spider mite (Tetranychus urticae) are sprayed with a active substance preparation of the desired concentration.
After the desired time the effect in % is determined. In doing so, 100% means that all spider mites were killed; 0% means that no spider mites were killed.

[8] = 100 ppm active substance, after 7 days, cabbage leaves

| Structure (SMILES) | Effect in % after 7 days [6] [%] | Effect in % after 7 days [7] [%] | also measured |
| --- | --- | --- | --- |
| COc1c(Cl)cc(OCC=C(Cl)Cl)cc1-c1nc(CCCOc2ccc(C(F)(F)F)cn2)no1 [Example I-128, 2-(3-{5-[3-chloro-5-(3,3-dichloro-allyloxy)-2-methoxy-phenyl]-[1,2,4]oxadiazol-3-yl}-propoxy)-5-trifluoromethyl-pyridine] |  |  | logP ([1]; read-out: log P): 5.99 |
| COc1c(Cl)cc(OCC=C(Cl)Cl)cc1C1=NOC(CCCOc2ccc(C(F)(F)F)cn2)C1 (racemic) [Example I-1, (R/S)-3-(2-methoxy-3-chloro-5-(1,1-dichloro-1-propen-3-oxy)-phenyl)-5-((5-trifluormethylpyridin-2-yl)-3-(propyl)ether-1-yl)-Δ^2-isoxazoline] | 100 | 100 | mortality at 100 ppm [2]: 100%; Effect in % after 14 days [3]: 80%; mortality at 100 ppm ([4]; Plutella xylostella, 168 h): 100%; mortality at 100 ppm ([5]; Spodoptera exigua, 168 h): 100% |
| COc1c(Cl)cc(OCC=C(Cl)Cl)cc1C1=NOC(CCOc2ccc(OCC(F)(F)F)nc2)C1 (racemic) [Example I-6, (R/S)-3-(2-methoxy-3-chloro-5-(dichloropropenoxy)phenyl)-5-((6-trifluorethoxypyridin-3-yl)-2-(ethyl)ether-1-yl)Δ^2-isoxazoline] | 100 |  | mortality [4, 8]: 100%; mortality [5, 8]: 100% |
| COc1c(Cl)cc(OCC=C(Cl)Cl)cc1C1=NOC(CCCOc2ccc(OCC(F)(F)F)nc2)C1 (racemic) [Example I-7, (R/S)-3-(2-methoxy-3-chloro-5-(dichloropropenoxy)phenyl)-5-((6-trifluorethoxypyridin-3-yl)-3-(propyl)ether-1-yl)Δ^2-isoxazoline] | 100 | 80 |  |
| COc1c(Cl)cc(OCC=C(Cl)Cl)cc1C1=NOC(CCCCOc2ccc(C(F)(F)F)cn2)C1 (racemic) [Example I-10, (R/S)-3-(2-methoxy-3-chloro-5-(dichloropropenoxy)phenyl)-5-((5-trifluormethylpyridin-2-yl)-4-(butyl)ether-1-yl)Δ^2-isoxazoline] | 100 | 80 |  |
| COc1c(Cl)cc(OCC=C(Cl)Cl)cc1-c1cc(CCOc2ccc(C(F)(F)F)cn2)on1 [Example I-9, 3-(2-methoxy-3-chloro-5-(dichloropropenoxy)phenyl)-5-((5-trifluormethylpyridin-2-yl)-2-(ethyl)ether-1-yl)isoxazole] | 100 | 90 |  |
| COc1c(Cl)cc(OCC=C(Cl)Cl)cc1C1=NOC(CCOc2ccc(OCC(F)(F)F)nc2)C1 (racemic) [Example I-11, (R/S)-3-(2-methoxy-3-chloro-5-(dichloropropenoxy)phenyl)-5-((6-trifluorethoxypyridin-3-yl)-2-(ethyl)ether-1-yl)Δ^2-isoxazoline] | 100 |  |  |
| COc1c(Cl)cc(OCC=C(Cl)Cl)cc1C1=NC(CO)CO1 (centres unmarked) [{2-[3-chloro-5-(3,3-dichloro-allyloxy)-2-methoxy-phenyl]-4,5-dihydro-oxazol-4-yl}-methanol] |  |  | logP ([1]; pH=2.3, read-out: log P(pH=2.3)): 2.05 |
| COc1c(Cl)cc(OCC=C(Cl)Cl)cc1C1=NOC(COc2ccc(C(F)(F)F)cn2)C1 (racemic) [Example I-5, (R/S)-3-(2-methoxy-3-chloro-5-(dichlorpropenoxy)phenyl)-5-((5-trifluormethylpyridin-2-yl)-2-(methyl)ether-1-yl)Δ^2-isoxazoline] | 10 |  |  |
| COc1ccc(OCC=C(Cl)Cl)cc1-c1noc(CCCOc2ccc(C(F)(F)F)cn2)n1 [Example I-127, 2-(3-{3-[5-(3,3-dichloro-allyloxy)-2-methoxy-phenyl]-[1,2,4]oxadiazol-5-yl}-propoxy)-5-trifluoromethyl-pyridine] |  |  | logP ([1]; neutral, read-out: log P (neutral)): 4.93 |
